Measurements reported in patent US20170210751A1, “PRMT5 INHIBITORS AND USES THEREOF” (Epizyme, Inc., priority 2014, published 2017).

How the values were obtained:
[1] = biological target: T1, PRMT5/MEP50 (Homo sapiens, UniProt O14744); experiment: PRMT5 Biochemical Assay (PRMT5/MEP50 enzyme assay on peptide substrate, 3H-SAM Flashplate); conditions: PRMT5/MEP50 4 nM, 3H-SAM 75 nM, peptide 40 nM, 30 min preincubation at 25 degrees Celsius
T1 construct: Flag-PRMT5; made in house; host or cells: Spodoptera frugiperda (SF9) insect cells, baculovirus (pDEST8)
Procedure, shortened: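 FLAG-PRMT5/His-MEP50 from Sf9 cells (4 nM) preincubated 30 min at 25 °C with compounds, then reacted with 75 nM 3H-SAM and 40 nM biotinylated histone H4 1-15 peptide in Bicine pH 7.6, 1% DMSO. Stopped with 600 uM cold SAM; streptavidin Flashplate capture, scintillation counts; % inhibition fitted to 3- or 4-parameter curve.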

[2] = tested on: Z-138 cell line; experiment: Z-138 Proliferation Assay (Cell Titer Glo); format: cell-based; conditions: Homo sapiens, 120 h; Z-138 cells, 5 days incubation, ATP (Cell Titer Glo)
Procedure, shortened: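 Z-138 cells in RPMI with 10% FBS exposed 5 days at 37 °C to nine-point 3-fold dilutions, top 20 μM final, 0.2% DMSO, triplicate. ATP-based CellTiter-Glo luminescence; IC50 from 4-parameter fit of normalized curves.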

T1 sequence (O14744 with tags, fused parts or gaps): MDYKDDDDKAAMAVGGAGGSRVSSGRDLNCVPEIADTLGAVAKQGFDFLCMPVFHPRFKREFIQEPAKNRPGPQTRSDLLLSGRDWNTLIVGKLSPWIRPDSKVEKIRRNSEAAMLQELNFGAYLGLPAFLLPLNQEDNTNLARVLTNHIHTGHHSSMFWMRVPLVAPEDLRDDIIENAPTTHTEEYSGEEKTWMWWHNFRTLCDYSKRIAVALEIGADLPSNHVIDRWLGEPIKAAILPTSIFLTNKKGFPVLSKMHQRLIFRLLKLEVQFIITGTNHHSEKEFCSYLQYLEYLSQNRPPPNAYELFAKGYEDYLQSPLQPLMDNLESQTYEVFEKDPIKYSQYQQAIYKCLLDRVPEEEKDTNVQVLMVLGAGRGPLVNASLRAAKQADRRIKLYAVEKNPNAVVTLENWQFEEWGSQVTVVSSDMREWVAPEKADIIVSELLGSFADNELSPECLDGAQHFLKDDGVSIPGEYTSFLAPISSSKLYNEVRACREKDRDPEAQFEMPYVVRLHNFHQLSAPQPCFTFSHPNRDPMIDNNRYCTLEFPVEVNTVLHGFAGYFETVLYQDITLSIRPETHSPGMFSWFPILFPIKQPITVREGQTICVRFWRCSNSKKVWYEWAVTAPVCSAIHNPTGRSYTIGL
T1 sequence (Q9BQA1 with tags, fused parts or gaps partner limits assumed): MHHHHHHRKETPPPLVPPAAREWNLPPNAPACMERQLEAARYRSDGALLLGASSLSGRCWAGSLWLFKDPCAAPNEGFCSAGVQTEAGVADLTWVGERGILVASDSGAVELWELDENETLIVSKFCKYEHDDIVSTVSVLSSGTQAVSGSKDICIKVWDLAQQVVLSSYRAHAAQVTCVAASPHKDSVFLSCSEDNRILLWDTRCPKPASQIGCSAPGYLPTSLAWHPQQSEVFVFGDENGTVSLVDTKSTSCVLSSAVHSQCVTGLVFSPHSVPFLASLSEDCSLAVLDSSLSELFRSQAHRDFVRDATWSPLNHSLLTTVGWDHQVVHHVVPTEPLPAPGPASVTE

SMILES	IC50 [1]	EC50 [2]
CC(=O)N1CCC(Nc2cc(C(=O)NC[C@H](O)CN3CCc4nn(C)cc4C3)ncn2)CC1 [Compound 3-57]	> 10 µM	> 5 µM
CC(=O)N1CCC(Nc2cc(C(=O)NC[C@H](O)CN3CCc4c(cnn4C)C3)ncn2)CC1 [Compound 3-56]	> 10 µM	> 5 µM
Cn1cnc2c1CN(C[C@@H](O)CNC(=O)c1cc(NC3COC3)ncn1)CC2 [Compound 3-26, (S)—N-(2-hydroxy-3-(3-methyl-6,7-dihydro-3H-imidazo[4,5-c]pyridin-5(4H)-yl)propyl)-6-(oxetan-3-ylamino)pyrimidine-4-carboxamide]	> 10 µM	> 5 µM
O=C(COc1cccc2cccnc12)NCC(O)CN1CCc2nc[nH]c2C1 (stereo not drawn) [Compound 3-10, N-(2-hydroxy-3-{3H,4H,5H,6H,7H-imidazo[4,5-c]pyridin-5-yl}propyl)-2-(quinolin-8-yloxy)acetamide]	> 10 µM	> 5 µM
CC(=O)N1CC(Nc2cc(C(=O)NC[C@H](O)CN3CCc4cn[nH]c4C3)ncn2)C1 [Compound 3-44]	> 10 µM	> 5 µM
CC(=O)N1CCC(Nc2cc(C(=O)NC[C@H](O)CN3CCc4[nH]cnc4C3)ncn2)CC1 [Compound 3-34, (S)-6-((1-acetylpiperidin-4-yl)amino)-N-(3-(6,7-dihydro-1H-imidazo[4,5-c]pyridin-5(4H)-yl)-2-hydroxypropyl)pyrimidine-4-carboxamide]	> 10 µM	> 5 µM
CC(=O)N1CCC(Nc2cc(C(=O)NC[C@H](O)CN3CCc4c(ncn4C)C3)ncn2)CC1 [Compound 3-35, (S)-6-((1-acetylpiperidin-4-yl)amino)-N-(2-hydroxy-3-(1-methyl-6,7-dihydro-1H-imidazo[4,5-c]pyridin-5(4H)-yl)propyl)pyrimidine-4-carboxamide]	> 10 µM	> 5 µM
Cc1nc2c(s1)CN(C[C@@H](O)CNC(=O)c1cc(NC3COC3)ncn1)CC2 [Compound 1-8, (S)—N-(2-hydroxy-3-(2-methyl-6,7-dihydrothiazolo[5,4-c]pyridin-5(4H)-yl)propyl)-6-(oxetan-3-ylamino)pyrimidine-4-carboxamide]	> 10 µM	> 5 µM
CC(=O)N1CC(Nc2cc(C(=O)NC[C@H](O)CN3CCc4ncsc4C3)ncn2)C1 [Compound 1-17, (S)-6-((1-acetylazetidin-3-yl)amino)-N-(3-(6,7-dihydrothiazolo[5,4-c]pyridin-5(4H)-yl)-2-hydroxypropyl)pyrimidine-4-carboxamide]	> 10 µM	> 5 µM
Cn1ncc2c1CCCN2C[C@@H](O)CNC(=O)c1cc(NC2COC2)ncn1 [Compound 3-40]	> 10 µM	> 5 µM
Cn1cnc2c1CCN(C[C@@H](O)CNC(=O)c1cc(NC3COC3)ncn1)C2 [Compound 3-28]	> 10 µM	> 5 µM
CC(=O)N1CCC(Nc2cc(C(=O)NC[C@H](O)CN3CCc4[nH]nc(-c5ccccc5)c4C3)ncn2)CC1 [Compound 3-12, (S)-6-((1-acetylpiperidin-4-yl)amino)-N-(2-hydroxy-3-(3-phenyl-6,7-dihydro-1H-pyrazolo[4,3-c]pyridin-5(4H)-yl)propyl)pyrimidine-4-carboxamide]	> 10 µM	> 5 µM
CC(=O)N1CC(Nc2cc(C(=O)NC[C@H](O)CN3CCc4[nH]nc(-c5ccccc5)c4C3)ncn2)C1 [Compound 3-11, (S)-6-((1-acetylazetidin-3-yl)amino)-N-(2-hydroxy-3-(3-phenyl-6,7-dihydro-1H-pyrazolo[4,3-c]pyridin-5(4H)-yl)propyl)pyrimidine-4-carboxamide]	1 to 10 µM	> 5 µM
CC(=O)N1CC(Nc2cc(C(=O)NC[C@H](O)CN3CCc4nc(N)sc4C3)ncn2)C1 [Compound 1-29]	1 to 10 µM	> 5 µM
O=C(NC[C@H](O)CN1CCc2cnccc2C1)c1cc(NC2COC2)ncn1 [Compound 2-15]	1 to 10 µM	> 5 µM
Nc1nc2c(s1)CCN(C[C@@H](O)CNC(=O)c1cc(NC3COC3)ncn1)C2 [Compound 1-20, (S)—N-(3-(2-amino-6,7-dihydrothiazolo[4,5-c]pyridin-5(4H)-yl)-2-hydroxypropyl)-6-(oxetan-3-ylamino)pyrimidine-4-carboxamide]	> 10 µM	> 5 µM
CC(=O)N1CC(Nc2cc(C(=O)NC[C@H](O)CN3CCc4[nH]ncc4C3)ncn2)C1 [Compound 3-23]	1 to 10 µM	> 5 µM
O=C(COc1cccc2cccnc12)NCC(O)CN1CCc2ncccc2C1 (stereo not drawn) [Compound 2-6, N-[2-hydroxy-3-(5,6,7,8-tetrahydro-1,6-naphthyridin-6-yl)propyl]-2-(quinolin-8-yloxy)acetamide]	1 to 10 µM	> 5 µM

Second part, led by results:

IC50 [1]	SMILES	EC50 [2]
1 to 10 µM	CC(=O)N1CCC(Nc2cc(C(=O)NC[C@H](O)CN3CCc4ncsc4C3)ccn2)CC1 [Compound 1-19, (S)-2-((1-acetylpiperidin-4-yl)amino)-N-(3-(6,7-dihydrothiazolo[5,4-c]pyridin-5(4H)-yl)-2-hydroxypropyl)isonicotinamide]	> 5 µM
1 to 10 µM	CC(=O)N1CC(Nc2cc(C(=O)NC[C@H](O)CN3CCc4sc(C)nc4C3)ncn2)C1 [Compound 1-27]	> 5 µM
< 0.1 µM	CC(=O)N1CCC(Nc2cc(C(=O)NC[C@H](O)CN3CCc4scc(C)c4C3)ncn2)CC1 [Compound 1-13, (S)-6-((1-acetylpiperidin-4-yl)amino)-N-(2-hydroxy-3-(3-methyl-6,7-dihydrothieno[3,2-c]pyridin-5(4H)-yl)propyl)pyrimidine-4-carboxamide]	0.101 to 1 µM
1 to 10 µM	CC(=O)N1CCC(Nc2cc(C(=O)NC[C@H](O)CN3CCc4ccncc4C3)ncn2)CC1 [Compound 2-23, (S)-6-((1-acetylpiperidin-4-yl)amino)-N-(3-(3,4-dihydro-2,7-naphthyridin-2(1H)-yl)-2-hydroxypropyl)pyrimidine-4-carboxamide]	> 5 µM
0.101 to 1 µM	Cc1csc2c1CN(C[C@@H](O)CNC(=O)c1cc(NC3COC3)ncn1)CC2 [Compound 1-11, (S)—N-(2-hydroxy-3-(3-methyl-6,7-dihydrothieno[3,2-c]pyridin-5(4H)-yl)propyl)-6-(oxetan-3-ylamino)pyrimidine-4-carboxamide]	1 to 10 µM
< 0.1 µM	O=C(COc1cccc2cccnc12)NCC(O)CN1CCc2sccc2C1 (stereo not drawn) [Compound 1-4, N-(2-hydroxy-3-{4H,5H,6H,7H-thieno[3,2-c]pyridin-5-yl}propyl)-2-(quinolin-8-yloxy)acetamide]	1 to 10 µM
< 0.1 µM	CC(=O)N1CCC(Nc2cc(C(=O)NC[C@H](O)CN3CCc4sccc4C3)ncn2)CC1 [Compound 1-3, (S)-6-((1-acetylpiperidin-4-yl)amino)-N-(3-(6,7-dihydrothieno[3,2-c]pyridin-5(4H)-yl)-2-hydroxypropyl)pyrimidine-4-carboxamide]	0.101 to 1 µM
< 0.1 µM	CC(=O)N1CCC(Nc2cc(C(=O)NC[C@H](O)CN3CCc4ncccc4C3)ncn2)CC1 [Compound 2-14, (S)-6-((1-acetylpiperidin-4-yl)amino)-N-(3-(7,8-dihydro-1,6-naphthyridin-6(5H)-yl)-2-hydroxypropyl)pyrimidine-4-carboxamide]	1 to 10 µM
0.101 to 1 µM	CC(=O)N1CCC(Nc2cc(C(=O)NC[C@H](O)CN3CCc4cnccc4C3)ccn2)CC1 [Compound 2-18]	0.101 to 1 µM
